System: hair cells of hCLRN1^N48K-YFP; clrn1^KO/KO larvae
Assay: Extracellular microphonic potentials of lateral line neuromast hair cells
Type: in vivo, zebrafish
Conditions: 0.4 uM ART 4 hours/day from 3 dpf to 6 dpf; recorded at 6 dpf; untreated 7.286
Procedure: Zebrafish larvae at 6 dpf were anesthetized using MS-222 (Sigma-Aldrich) dissolved in a standard bath solution containing 120 mM NaCl, 2 mM KCl, 10 mM HEPES, 2 mM CaCl2, and 0.7 mM NaH2PO4 adjusted to pH 7.2. The larvae were then secured in a recording chamber using dental floss tie downs (Ricci and Fettiplace, 1997). Their blood flow and heart rate were visually observed to assess viability using an upright Olympus BX51WI microscope. Recordings were made with a PC-505B amplifier (Warner Instruments) and a PCI-6221 digitizer (National Instruments). Images were taken with a Grasshopper3 CMOS camera (Point Grey) and processed with software provided by the manufacturer. To record the activity of hair cells from the lateral line neuromasts, the cupula of neuromasts were deflected with a fluid jet placed ˜50 μm from the neuromast (Trapani and Nicolson, 2010) and controlled by an HSPC-1 (ALA Scientific Instruments) that delivered sinusoidal stimuli of 50 Hz. Microphonic potentials were recorded at room temperature (22° C.). […] Microphonic potentials were recorded using a jClamp for Windows (SciSoft, license: Joseph Santos-Sacchi, Yale University, New Haven, CT) in current-clamp mode, amplified by 20 (SIM983; Stanford 37 Research), and low-pass filtered at 200 Hz. […]

With `C[C@@H]1CC[C@H]2[C@@H](C)C(=O)O[C@@H]3O[C@@]4(C)CC[C@@H]1[C@]32OO4` [ART, Artemisinin] the “Extracellular microphonic potentials (Mean±SEM)” value was 9.529 μV.

— patent US11865103B2, “Methods of treating disorders associated with glycosylation defective proteins” (CASE WESTERN RESERVE UNIVERSITY, priority 2016, dated 2024)
